Reference: patent US6372774B1, “Derivatives of N-phenylpyrazoles” (Rhone-Poulenc Agriculture Ltd., priority 1985, dated 2002)
Where two headings read alike, the source gives them in different places.

Legend:
[1] = tested on: Plutella xylostella (Diamond-back Moth); assay: whole plant or invertebrate; assay type: in vivo; conditions: foliar; for mortality at 500 ppm: read-out: mortality of larvae of Plutella xylostella; for pest or weed control at 500 ppm: read-out: Plutella % m 500 ppm
Source text: (§1) One or more dilutions of the compounds to be tested were made in 50% aqueous acetone.
(§2) a) Test species: Plutella xylostella (Diamond-back Moth) and Phaedon cochleariae (Mustard Beetle)
(§3) Turnip leaf discs were set in agar in petri-dishes and infected with 10 larvae (2nd instar Plutella or 3rd instar Phaedon). Four replicate dishes were assigned to each treatment and were sprayed under a Potter Tower with the appropriate test dilution. Four or five days after treatment the dishes were removed from the constant temperature (25° C.) room in which they had been held and the mean percentage mortalities of larvae were determined.

[2] = tested on: Phaedon cochleariae (Mustard Beetle); assay: Test 3 a): leaf disc spray test, Phaedon cochleariae larvae; assay type: in vivo; conditions: for pest or weed control at 10 ppm / mortality at 5 ppm: Phaedon cochleariae, foliar; for pest or weed control at 10 ppm: read-out: Phaedon % m 10 ppm; for mortality at 5 ppm: read-out: mortality of larvae of Phaedon cochleariae
Source text: as §1, §2, §3

[3] = Tables 1-3, % mortality at 10 ppm

Row | SMILES | mortality at 500 ppm [1] | mortality at 5 ppm [2] | other results
1 | CCC(=O)N(C(=O)C(C)(C)C)c1c(C#N)c(C(F)(F)F)nn1-c1c(Cl)cc(C(F)(F)F)cc1Cl [Compound 177, 4-Cyano-1-(2,6-dichloro-4-trifluoromethylphenyl)-5-(N-propionyl-N-trimethylacetylamino)-3-trifluoromethylpyrazole] | 100% | – | –
2 | CS(=O)(=O)c1c(C(F)(F)F)nn(-c2c(Cl)cc(C(F)(F)F)cc2Cl)c1N [Compound 130, 5-Amino-1-(2,6-dichloro-4-trifluoromethylphenyl)-4-methanesulphonyl-3-trifluoromethylpyrazole] | 100% | – | pest or weed control at 10 ppm [2]: 100%
3 | N#Cc1c(C(F)(F)F)nn(-c2c(Cl)cc(C(F)(F)F)cc2Cl)c1NC(=O)C1CC1 [Compound 147, 4-Cyano-1-(2,6-dichloro-4-trifluoromethylphenyl)-5-cyclopropanecarbonamido-3-trifluoromethylpyrazole] | – | – | Phaedon % m 10 ppm [2, 3]: 100%
4 | CNS(=O)(=O)c1c(C(F)(F)F)nn(-c2c(Cl)cc(C(F)(F)F)cc2Cl)c1N [Compound 199, 5-Amino-1-(2,6-dichloro-4-trifluoromethylphenyl)-4-(N-methylsulphamoyl)-3-trifluoromethylpyrazole] | – | 100% | –
5 | CCNS(=O)(=O)c1c(C(F)(F)F)nn(-c2c(Cl)cc(C(F)(F)F)cc2Cl)c1N [Compound 198, 5-Amino-1-(2,6-dichloro-4-trifluoromethylphenyl)-4-(N-ethylsulphamoyl)-3-trifluoromethylpyrazole] | – | 100% | –
6 | CSc1c(C#N)c(C(F)(F)F)nn1-c1c(Cl)cc(C(F)(F)F)cc1Cl [Compound 207, 4-Cyano-1-(2,6-dichloro-4-trifluoromethylphenyl)-5-methylthio-3-trifluoromethylpyrazole] | 100% | 100% | –
7 | Nc1c(Br)c(C(F)(F)F)nn1-c1c(Cl)cc(C(F)(F)F)cc1Cl [Compound 140, 5-Amino-4-bromo-1-(2,6-dichloro-4-trifluoromethylphenyl)-3-trifluoromethylpyrazole] | 100% | – | pest or weed control at 10 ppm [2]: 84%
8 | C[S+]([O-])c1c(C#N)c(C(F)(F)F)nn1-c1c(Cl)cc(C(F)(F)F)cc1Cl (centres unmarked) [Compound 220, 4-Cyano-1-(2,6-dichloro-4-trifluoromethylphenyl)-5-methylsulphinyl-3-trifluoromethylpyrazole] | – | 100% | –
9 | Nc1c([N+](=O)[O-])c(C(F)(F)F)nn1-c1c(Cl)cc(C(F)(F)F)cc1Cl [Compound 143, 5-Amino-1-(2,6-dichloro-4-trifluoromethylphenyl)-4-nitro-3-trifluoromethylpyrazole] | 100% | – | pest or weed control at 10 ppm [2]: 100%
10 | CC(C)(C)C(=O)Nc1c(C#N)c(C(F)(F)F)nn1-c1c(Cl)cc(C(F)(F)F)cc1Cl [Compound 139, 4-Cyano-1-(2,6-dichloro-4-trifluoromethylphenyl)-5-(2,2-dimethylpropionamido)-3-trifluoromethylpyrazole] | 100% | – | pest or weed control at 10 ppm [2]: 16%
11 | C[S+]([O-])c1c(C(F)(F)F)nn(-c2c(Cl)cc(C(F)(F)F)cc2Cl)c1N (centres unmarked) [Compound 216, 5-Amino-1-(2,6-dichloro-4-trifluoromethylphenyl)-4-methylsulphinyl-3-trifluoromethylpyrazole] | 100% | 100% | –
12 | COC(=O)c1c(C(F)(F)F)nn(-c2c(Cl)cc(C(F)(F)F)cc2Cl)c1N [Compound 132, 5-Amino-1-(2,6-dichloro-4-trifluoromethylphenyl)-4-methoxycarbonyl-3-trifluoromethylpyrazole] | – | – | pest or weed control at 10 ppm [2]: 100%; pest or weed control at 500 ppm [1]: 10%
13 | CSc1c(C(F)(F)F)nn(-c2c(Cl)cc(C(F)(F)F)cc2Cl)c1N [Compound 229, 5-Amino-1-(2,6-dichloro-4-trifluoromethylphenyl)-4-methylthio-3-trifluoromethylpyrazole] | 100% | 100% | –
14 | CCOC(=O)N(C(=O)OCC)c1c(C#N)c(C(F)(F)F)nn1-c1c(Cl)cc(C(F)(F)F)cc1Cl [Compound 145, 4-Cyano-1-(2,6-dichloro-4-trifluoromethylphenyl)-5-bis(ethoxycarbonyl)amino-3-trifluoromethylpyrazole] | – | – | pest or weed control at 10 ppm [2]: 100%; mortality at 500 ppm ([1]; Test 3 method (a), application of 500 ppm): 100%
15 | C[Si](C)(C)Cc1c(C#N)c(C(F)(F)F)nn1-c1c(Cl)cc(C(F)(F)F)cc1Cl [Compound 211, 4-Cyano-1-(2,6-dichloro-4-trifluoromethylphenyl)-3-trifluoromethyl-5-trimethylsilylmethylpyrazole] | 100% | – | –
16 | CCOC(=O)CNc1c(C#N)c(C(F)(F)F)nn1-c1c(Cl)cc(C(F)(F)F)cc1Cl [Compound 137, 4-Cyano-1-(2,6-dichloro-4-trifluoromethylphenyl)-5-ethoxycarbonylmethylamino-3-trifluoromethylpyrazole] | – | – | pest or weed control at 10 ppm [2]: 100%; pest or weed control at 500 ppm [1]: 48%

Row | SMILES | mortality at 500 ppm [1] | mortality at 5 ppm [2] | other results
17 | CCOC(=O)Nc1c([N+](=O)[O-])c(C(F)(F)F)nn1-c1c(Cl)cc(C(F)(F)F)cc1Cl [Compound 179, 1-(2,6-Dichloro-4-trifluoromethylphenyl)-5-ethoxycarbonylamino-4-nitro-3-trifluoromethylpyrazole] | 100% | 100% | –
18 | CNc1c(C#N)c(C(F)(F)F)nn1-c1c(Cl)cc(C(F)(F)F)cc1Cl [Compound 138, 4-Cyano-5-methylamino-1-(2,6-dichloro-4-trifluoromethylphenyl)-3-trifluoromethylpyrazole] | 100% | – | pest or weed control at 10 ppm [2]: 100%
19 | CCOC(=O)Nc1c(S(C)(=O)=O)c(C(F)(F)F)nn1-c1c(Cl)cc(C(F)(F)F)cc1Cl [Compound 187, 1-(2,6-Dichloro-4-trifluoromethylphenyl)-5-ethoxycarbonylamino-4-methanesulphonyl-3-trifluoromethylpyrazole] | 100% | 100% | –
20 | CC(C)(C)C(=O)Nc1c(C#N)c(Cl)nn1-c1c(Cl)cc(C(F)(F)F)cc1Cl [Compound 180, 3-Chloro-1-(2,6-dichloro-4-trifluoromethylphenyl)-4-cyano-5-trimethylacetylaminopyrazole] | 100% | – | –
21 | C[Si](C)(C)c1c(C#N)c(C(F)(F)F)nn1-c1c(Cl)cc(C(F)(F)F)cc1Cl [Compound 205, 4-Cyano-1-(2,6-dichloro-4-trifluoromethylphenyl)-3-trifluoromethyl-5-trimethylsilylpyrazole] | – | 100% | –
22 | N#Cc1c(I)nn(-c2c(Cl)cc(C(F)(F)F)cc2Cl)c1N [Compound 116, 5-Amino-3-iodo-4-cyano-1-(2,6-dichloro-4-trifluoromethylphenyl)pyrazole] | 100% | – | pest or weed control at 10 ppm [2]: 93%
23 | CCS(=O)(=O)c1c(C(F)(F)F)nn(-c2c(Cl)cc(C(F)(F)F)cc2Cl)c1N [Compound 221, 5-Amino-1-(2,6-dichloro-4-trifluoromethylphenyl)-4-ethylsulphonyl-3-trifluoromethylpyrazole] | – | 100% | –
24 | N#Cc1c(C(F)(F)C(F)(F)C(F)(F)F)nn(-c2c(Cl)cc(C(F)(F)F)cc2Cl)c1N [Compound 155, 5-Amino-4-cyano-1-(2,6-dichloro-4-trifluoromethylphenyl)-3-heptafluoropropylpyrazole] | – | – | pest or weed control at 10 ppm [2, 3]: 100%; pest or weed control at 500 ppm ([1]; Tables 1-2, % mortality at 500 ppm): 96%
25 | CC(=O)N(C(=O)C(C)(C)C)c1c(C#N)c(C(F)(F)F)nn1-c1c(Cl)cc(C(F)(F)F)cc1Cl [Compound 176, 4-Cyano-1-(2,6-dichloro-4-trifluoromethylphenyl)-5-(N-acetyl-N-trimethylacetylamino)-3-trifluoromethylpyrazole] | 100% | – | –
26 | N#Cc1c(C(F)(F)F)nn(-c2c(Cl)cc(C(F)(F)F)cc2Cl)c1C#N [Compound 213, 1-(2,6-Dichloro-4-trifluoromethylphenyl)-4,5-dicyano-3-trifluoromethylpyrazole] | 100% | – | –
27 | CCOC(=O)N(C(=O)OCC)c1c(C#N)c(Cl)nn1-c1c(Cl)cc(C(F)(F)F)cc1Cl [Compound 181, 3-Chloro-1-(2,6-dichloro-4-trifluoromethylphenyl)-4-cyano-5-bis(ethoxycarbonyl)aminopyrazole] | 100% | – | –
28 | Nc1c(I)c(C(F)(F)F)nn1-c1c(Cl)cc(C(F)(F)F)cc1Cl [Compound 189, 5-Amino-1-(2,6-dichloro-4-trifluoromethylphenyl)-4-iodo-3-trifluoromethylpyrazole] | 100% | – | –
29 | CCOC(=O)Nc1c(C#N)c(Cl)nn1-c1c(Cl)cc(C(F)(F)F)cc1Cl [Compound 182, 3-Chloro-1-(2,6-dichloro-4-trifluoromethylphenyl)-4-cyano-5-ethoxycarbonylaminopyrazole] | – | 100% | –
30 | CCOC(=O)N(C(C)=O)c1c(C#N)c(C(F)(F)F)nn1-c1c(Cl)cc(C(F)(F)F)cc1Cl [Compound 184, 5-(N-Acetyl-N-ethoxycarbonylamino)-4-cyano-1-(2,6-dichloro-4-trifluoromethylphenyl)-3-trifluoromethylpyrazole] | 100% | – | –
31 | N#Cc1cn(-c2c(Cl)cc(C(F)(F)F)cc2Cl)nc1F [Compound 195, 4-Cyano-1-(2,6-dichloro-4-trifluoromethylphenyl)-3-fluoropyrazole] | 100% | – | –
32 | N#Cc1c(F)nn(-c2c(Cl)cc(C(F)(F)F)cc2Cl)c1N [Compound 202, 5-Amino-1-(2,6-dichloro-4-trifluoromethylphenyl)-4-cyano-3-fluoropyrazole] | 100% | – | –
